The values that follow come from patent publication US10487345B2, “Methods for making and using polynucleotide sequences in the synthesis of alkaloid compounds” (priority 2014, dated 2019).

One assay has as its target GFLOMT1 (Glaucium flavum, UniProt A0A0H4IRD0). As to the kind of experiment: Standard OMT assay, substrate specificity of recombinant GFLOMT1. Format: biochemical. The note with it: for conversion of substrate by GFLOMT1: standard OMT assay, in the presence of SAM; for Substrate specificity, enzyme GFLOMT1: substrate conversion in the standard OMT assay in the presence of SAM (percent). The source says:
(§1) Full-length cDNAs for the seven GFLOMT candidates (see: Example 6) were cloned into the pRSETA expression vector with an N-terminal His_tag translational fusion and expressed in E. coli. Recombinant GFLOMTs were purified from total protein extracts using a cobalt-affinity resin.

Assay [1] deals with T1, GFLOMT2 (Glaucium flavum, UniProt A0A0H4ILZ3).
T1 sequence (A0A0H4ILZ3 1-348): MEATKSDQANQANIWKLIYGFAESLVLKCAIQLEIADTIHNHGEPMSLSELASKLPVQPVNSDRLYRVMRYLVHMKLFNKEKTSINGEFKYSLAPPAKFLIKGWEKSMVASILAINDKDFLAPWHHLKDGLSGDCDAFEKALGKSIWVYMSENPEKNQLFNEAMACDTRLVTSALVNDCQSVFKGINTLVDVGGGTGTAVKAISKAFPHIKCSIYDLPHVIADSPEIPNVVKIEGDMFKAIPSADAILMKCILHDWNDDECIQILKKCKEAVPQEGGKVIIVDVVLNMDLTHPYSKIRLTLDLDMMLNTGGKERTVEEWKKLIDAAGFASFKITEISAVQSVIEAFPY
Briefly: Standard OMT assay, substrate specificity of recombinant GFLOMT2. The format is biochemical. The note with it: for conversion of substrate by GFLOMT2: standard OMT assay; for Substrate specificity, enzyme GFLOMT2: substrate conversion in the standard OMT assay (percent).
Text: as §1

For a further assay, the target named is GFLOMT6 (Glaucium flavum, UniProt A0A0H4IRD2). As to the kind of experiment: Standard OMT assay, substrate specificity of recombinant GFLOMT6. Format: biochemical. Conditions: for conversion of substrate by GFLOMT6 / acceptance as substrate by GFLOMT6 (in words): standard OMT assay; for Substrate specificity, enzyme GFLOMT6: substrate conversion in the standard OMT assay (percent).
Text: as §1

Assay [2] has as its target T1, GFLOMT2. Conditions: read-out: Km of GFLOMT2 for substrate; preferred substrate yielding single reaction product.
For the next assay, the system named is GFLOMT7. Briefly: Standard OMT assay, substrate specificity of recombinant GFLOMT7. The note with it: for conversion of substrate by GFLOMT7: standard OMT assay; for Substrate specificity, enzyme GFLOMT7: substrate conversion in the standard OMT assay (percent). The format is biochemical, Glaucium flavum.
Text: as §1

Regarding `COc1ccc(C[C@H]2c3cc(O)c(OC)cc3CCN2C)cc1O` [(S)-Reticuline, Reticuline], at GFLOMT1, the “conversion of substrate by GFLOMT1” value was found to be 6% and the “Substrate specificity, enzyme GFLOMT1” value is 6. Besides, at GFLOMT2 [1], the “conversion of substrate by GFLOMT2” value was found to be 22% and the “Substrate specificity, enzyme GFLOMT2” value turned out to be 22. At GFLOMT6, the “conversion of substrate by GFLOMT6” value was 97% and the “Substrate specificity, enzyme GFLOMT6” value was determined as 97.
Take `COc1ccc(C[C@@H]2NCCc3cc(OC)c(O)cc32)cc1O` (racemic) [(R,S)-Norreticuline, Norreticuline]: at GFLOMT6, the “conversion of substrate by GFLOMT6” value came to 36% and the “Substrate specificity, enzyme GFLOMT6” value is 36.
For the compound `COc1cc2c(cc1O)C(Cc1ccc(O)c(O)c1)N(C)CC2` (racemic) [(R,S)-6-O-Methyllaudanosoline, 6-O-Methyllaudanosoline], on GFLOMT1, the “conversion of substrate by GFLOMT1” value turned out to be 68% and the “Substrate specificity, enzyme GFLOMT1” value is given as 68. Moreover, on GFLOMT2 [1], the “conversion of substrate by GFLOMT2” value came to 14% and the “Substrate specificity, enzyme GFLOMT2” value stood at 14. Also, on GFLOMT6, the “conversion of substrate by GFLOMT6” value is reported as 23% and the “Substrate specificity, enzyme GFLOMT6” value is 23.
With `Oc1ccc(CC2NCCc3cc(O)c(O)cc32)cc1O` (racemic) [(R,S)-Norlaudanosoline, Norlaudanosoline], at GFLOMT1, the “conversion of substrate by GFLOMT1” value worked out at 96% and the “Substrate specificity, enzyme GFLOMT1” value is given as 96. Besides, at GFLOMT2 [2], the Km was determined as 15 µM. Moreover, at GFLOMT2 [1], the “conversion of substrate by GFLOMT2” value amounted to 100% and the “Substrate specificity, enzyme GFLOMT2” value turned out to be 100. The “acceptance as substrate by GFLOMT6 (in words)” value on GFLOMT6 is recorded as “did not accept”.
On to `COc1cc2c(cc1O)[C@@H]1Cc3ccc(OC)c(OC)c3CN1CC2` (racemic) [(R,S)-Tetrahydrocolubamine, Tetrahydrocolumbamine], for which, at GFLOMT1, the “conversion of substrate by GFLOMT1” value is reported as 19% and the “Substrate specificity, enzyme GFLOMT1” value came out at 19. Further, at GFLOMT2 [1], the “conversion of substrate by GFLOMT2” value is reported as 32% and the “Substrate specificity, enzyme GFLOMT2” value turned out to be 32. Moreover, in the assay with GFLOMT7, the “conversion of substrate by GFLOMT7” value is on record as 8% and the “Substrate specificity, enzyme GFLOMT7” value turned out to be 8. Moreover, at GFLOMT6, the “conversion of substrate by GFLOMT6” value worked out at 90% and the “Substrate specificity, enzyme GFLOMT6” value was 91.
For `COc1cc2c(cc1O)C1Cc3ccc(OC)c(O)c3CN1CC2` (racemic) [(R,S)-Scoulerine, Scoulerine], at GFLOMT1, the “conversion of substrate by GFLOMT1” value was found to be 32% and the “Substrate specificity, enzyme GFLOMT1” value is 32. Moreover, on GFLOMT2 [1], the “conversion of substrate by GFLOMT2” value is given as 75% and the “Substrate specificity, enzyme GFLOMT2” value stood at 75. Further, in the assay with GFLOMT7, the “conversion of substrate by GFLOMT7” value is 12% and the “Substrate specificity, enzyme GFLOMT7” value is given as 12. In addition, on GFLOMT6, the “conversion of substrate by GFLOMT6” value was 100% and the “Substrate specificity, enzyme GFLOMT6” value amounted to 100.
With `COc1cc2c(cc1O)C(Cc1ccc(O)c(O)c1)NCC2` (racemic) [(R,S)-6-O-Methylnorlaudanosoline, 6-O-Methylnorlaudanosoline], at GFLOMT1, the “conversion of substrate by GFLOMT1” value was 87% and the “Substrate specificity, enzyme GFLOMT1” value came out at 87. Besides, on GFLOMT2 [1], the “conversion of substrate by GFLOMT2” value worked out at 1% and the “Substrate specificity, enzyme GFLOMT2” value is 1. Also, the “acceptance as substrate by GFLOMT6 (in words)” value on GFLOMT6 is recorded as “did not accept”.
